Reference: patent US11168095B2, “ASK1 inhibiting agents” (BIOGEN MA INC., priority 2017, dated 2021)

How the values were obtained:
[1] = target: ASK1 T838 auto phosphorylation in HEK-293T cells (Homo sapiens (Human), UniProt Q99683); experiment: ASK1 (AUTO PHOS T838) assay, MSD format; type: cell-based; details: HEK 293T cells transfected with ASK1-V5 full length plasmid, compounds 1 hr at 37° C.; read-out: IC50
ASK1/MAP3K5 = ASK1/MAP3K5 (Homo sapiens (Human), UniProt Q99683); experiment: ASK1/MAP3K5 assay by Reaction Biology Corp.; type: biochemical; details: 20 μM myelin basic protein (MBP), 10 μM ATP
Sequence of ASK1/MAP3K5 (Q99683 whole entry): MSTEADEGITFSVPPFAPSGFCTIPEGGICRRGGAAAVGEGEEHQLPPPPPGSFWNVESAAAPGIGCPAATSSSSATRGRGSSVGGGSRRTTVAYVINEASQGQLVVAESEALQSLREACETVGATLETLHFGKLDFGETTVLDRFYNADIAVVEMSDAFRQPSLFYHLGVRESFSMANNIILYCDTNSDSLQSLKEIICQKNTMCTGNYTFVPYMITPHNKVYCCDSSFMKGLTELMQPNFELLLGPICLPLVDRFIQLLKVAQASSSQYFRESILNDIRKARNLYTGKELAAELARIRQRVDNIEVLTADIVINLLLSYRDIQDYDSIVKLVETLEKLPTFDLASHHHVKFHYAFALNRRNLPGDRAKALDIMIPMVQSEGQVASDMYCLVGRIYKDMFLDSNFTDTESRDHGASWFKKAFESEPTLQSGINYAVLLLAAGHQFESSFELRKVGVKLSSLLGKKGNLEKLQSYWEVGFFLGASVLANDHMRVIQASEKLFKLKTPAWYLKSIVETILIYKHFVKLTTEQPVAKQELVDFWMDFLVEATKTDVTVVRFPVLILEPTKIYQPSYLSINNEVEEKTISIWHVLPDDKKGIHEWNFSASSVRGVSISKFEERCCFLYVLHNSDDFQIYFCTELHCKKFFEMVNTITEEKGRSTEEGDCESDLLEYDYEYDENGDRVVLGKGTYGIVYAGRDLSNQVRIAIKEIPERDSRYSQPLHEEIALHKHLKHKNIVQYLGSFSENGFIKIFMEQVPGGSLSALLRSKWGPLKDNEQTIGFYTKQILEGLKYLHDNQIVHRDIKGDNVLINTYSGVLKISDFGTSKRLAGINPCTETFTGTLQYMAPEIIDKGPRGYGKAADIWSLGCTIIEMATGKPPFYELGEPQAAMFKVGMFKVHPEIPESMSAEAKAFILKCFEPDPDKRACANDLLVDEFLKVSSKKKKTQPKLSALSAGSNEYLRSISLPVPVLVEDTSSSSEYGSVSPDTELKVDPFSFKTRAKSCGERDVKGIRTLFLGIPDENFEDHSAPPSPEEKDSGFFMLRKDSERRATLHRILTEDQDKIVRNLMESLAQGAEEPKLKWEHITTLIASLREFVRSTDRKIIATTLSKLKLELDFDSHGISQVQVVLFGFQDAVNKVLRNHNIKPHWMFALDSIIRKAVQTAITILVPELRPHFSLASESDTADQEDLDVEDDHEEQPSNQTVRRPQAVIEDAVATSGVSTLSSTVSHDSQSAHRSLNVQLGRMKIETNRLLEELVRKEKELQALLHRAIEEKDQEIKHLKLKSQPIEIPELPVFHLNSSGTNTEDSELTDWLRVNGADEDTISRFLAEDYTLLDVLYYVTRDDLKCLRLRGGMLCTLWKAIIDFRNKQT
Protocol: ASK1/MAP3K5 was used as the protein kinase and 20 μM of myelin basic protein (MBP) and 10 μM ATP were used as the substrate.

GST-hASK1 = GST-hASK1 (Homo sapiens (Human), UniProt Q99683); experiment: ASK1 TR-FRET assay; type: biochemical; details: 5 nM GST-hASK1, 100 μM ATP, 2 μM STK Substrate 3
Sequence of GST-hASK1 (Q99683 649-946): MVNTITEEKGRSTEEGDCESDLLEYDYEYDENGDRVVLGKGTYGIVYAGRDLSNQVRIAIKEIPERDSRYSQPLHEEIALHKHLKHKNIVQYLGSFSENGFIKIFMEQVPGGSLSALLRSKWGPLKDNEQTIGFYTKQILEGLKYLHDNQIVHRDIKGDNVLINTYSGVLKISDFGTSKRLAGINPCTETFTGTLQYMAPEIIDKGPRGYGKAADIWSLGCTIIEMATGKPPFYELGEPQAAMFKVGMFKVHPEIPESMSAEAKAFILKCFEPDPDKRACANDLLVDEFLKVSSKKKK
Protocol: The protein kinase activity of 5 nM GST-hASK1(Life Technologies PV4011) was assayed with 100 μM ATP and 2 μM of HTRF biotinylated STK Substrate 3 (CisBio Kit 62ST3PEJ), at ambient temperature in 25 mM Hepes, pH 7.5, 50 mM NaCl, 10 mM MgCl2, 0.02% Brij-35, 1 mM DTT, and 1% DMSO.
After a 10 minute pre-incubation, ASK1 protein kinase activity was initiated by addition of 10 μL of 300 μM ATP.

Sequence of ASK1 T838 auto phosphorylation in HEK-293T cells (Q99683 whole entry): as the sequence (Q99683 whole entry) above

Structure (SMILES)	IC50 [1] [µM]	IC50 (ASK1/MAP3K5) [µM]	IC50 (GST-hASK1) [µM]
O=C1Nc2cccc(n2)-c2nncn2CCCCCOc2ccc(N3CC4(COC4)C3)cc21 [Example 173, 5^5-(2-Oxa-6-azaspiro[3.3]heptan-6-yl)-1^4H-6-oxa-3-aza-2(2,6)-pyridina-1(3,4)-triazola-5(1,2)-benzenacycloundecaphan-4-one]	< 1	< 0.1	< 0.1
O=C1Nc2cccc(n2)-c2nncn2CCCCOc2ccc(N3CCC(F)(F)CC3)cc21 [Example 12, 5^5-(4,4-Difluoropiperidin-1-yl)-1^4H-6-oxa-3-aza-2(2,6)-pyridina-1(3,4)-triazola-5(1,2)-benzenacyclodecaphan-4-one]	< 1	< 0.1	< 0.1
O=C1Nc2cccc(n2)-c2nncn2CCCCOc2ccc(N3C4COCC3C4)cc21 [Example 8, 5^5-(3-Oxa-6-azabicyclo[3.1.1]heptan-6-yl)-1^4H-6-oxa-3-aza-2(2,6)-pyridina-1(3,4)-triazola-5(1,2)-benzenacyclodecaphan-4-one]	1 to 10	< 0.1	< 0.1
O=C1Nc2cccc(n2)-c2nncn2CCCCOc2ccc(C3CCOC3)cc21 (racemic) [Example 15, rac-5^5-(Tetrahydrofuran-3-yl)-1^4H-6-oxa-3-aza-2(2,6)-pyridina-1(3,4)-triazola-5(1,2)-benzenacyclodecaphan-4-one]	< 1	< 0.1	< 0.1
O=C1Nc2cccc(n2)-c2nncn2CCCCOc2ccc(N3C4CCC3COC4)cc21 [Example 5, 5^5-(3-Oxa-8-azabicyclo[3.2.1]octan-8-yl)-1^4H-6-oxa-3-aza-2(2,6)-pyridina-1(3,4)-triazola-5(1,2)-benzenacyclodecaphan-4-one]	< 1	< 0.1	< 0.1
Cc1nn(C)cc1-c1ccc2c(c1)C(=O)Nc1cccc(n1)-c1nncn1CCCCO2 [Example 32, 5^5-(1,3-Dimethyl-1H-pyrazol-4-yl)-1^4H-6-oxa-3-aza-2(2,6)-pyridina-1(3,4)-triazola-5(1,2)-benzenacyclodecaphan-4-one]	< 1	< 0.1	< 0.1
O=C1Nc2cccc(n2)-c2nncn2CCCCOc2ccc(-n3cnc(C4CC4)c3)cc21 [Example 22, 5^5-(4-Cyclopropyl-1H-imidazol-1-yl)-1^4H-6-oxa-3-aza-2(2,6)-pyridina-1(3,4)-triazola-5(1,2)-benzenacyclodecaphan-4-one]	< 1	< 0.1	< 0.1
O=C1Nc2cccc(n2)-c2nncn2CCCCOc2ccc(-n3cccn3)cc21 [Example 44, 5^5-(1H-Pyrazol-1-yl)-1^4H-6-oxa-3-aza-2(2,6)-pyridina-1(3,4)-triazola-5(1,2)-benzenacyclodecaphan-4-one]	< 1	< 0.1	< 0.1
Cc1cn(-c2ccc3c(c2)C(=O)Nc2cccc(n2)-c2nncn2[C@H](C)CCCO3)cn1 [Example 93, (R)-10-Methyl-5^5-(4-methyl-1H-imidazol-1-yl)-1^4H-6-oxa-3-aza-2(2,6)-pyridina-1(3,4)-triazola-5(1,2)-benzenacyclodecaphan-4-one]	< 1	< 0.1	< 0.1
Cc1nn(C)c(C)c1-c1ccc2c(c1)C(=O)Nc1cccc(n1)-c1nncn1CCCCO2 [Example 33, 5^5-(1,3,5-Trimethyl-1H-pyrazol-4-yl)-1^4H-6-oxa-3-aza-2(2,6)-pyridina-1(3,4)-triazola-5(1,2)-benzenacyclodecaphan-4-one]	< 1	< 0.1	< 0.1
C[C@H]1CCCOc2ccc(-c3cnn(C)c3)cc2C(=O)Nc2cccc(n2)-c2nncn21 [Example 96, (S)-10-Methyl-5^5-(1-methyl-1H-pyrazol-4-yl)-1^4H-6-oxa-3-aza-2(2,6)-pyridina-1(3,4)-triazola-5(1,2)-benzenacyclodecaphan-4-one]	< 1	< 0.1	< 0.1
